Patent US20240415914A1, “Water Dispersible Cannabinoid Compositions” (priority 2021, published 2024)
Like-named read-outs stand apart in the source and are kept apart here.

How the values were obtained:
[1] = format: physicochemical; conditions: stored at room temperature (21-25° C.)
Experimental: At each time period, 0.05 g of powder was dissolved in 10 ml-15 of ethanol, diluted to fall within the analytical range, and injected into the LCMSMS for analysis.

[2] = Stability of cannabinoid and Vitamin E components of Beverage 2 (AB Red) stored at 8° C. and 21-25° C., LCMSMS over 570 days
Experimental: The LCMSMS was calibrated for 0-50 ng/ml cannabinoids with the same resin material used in the preparation of the concentrates. At each time period, 100 μml of beverage was diluted with 10 ml of methanol and injected into the LCMSMS for analysis.

## CCCCCc1cc2c(c(O)c1C(=O)O)[C@@H]1C=C(C)CC[C@H]1C(C)(C)O2 [D9 THCA, delta-9-tetrahydrocannabinolic acid]
[1]; day 0
  Stability in Powder Concentrate (content by LCMSMS): 0.150 mg/g powder
[1]; day 1
  Stability in Powder Concentrate (content by LCMSMS): 0.150 mg/g powder
[1]; day 2
  Stability in Powder Concentrate (content by LCMSMS): 0.147 mg/g powder
[1]; day 3
  Stability in Powder Concentrate (content by LCMSMS): 0.150 mg/g powder
[1]; day 5
  Stability in Powder Concentrate (content by LCMSMS): 0.146 mg/g powder
[1]; day 8
  Stability in Powder Concentrate (content by LCMSMS): 0.156 mg/g powder
[1]; day 9
  Stability in Powder Concentrate (content by LCMSMS): 0.151 mg/g powder
[1]; day 10
  Stability in Powder Concentrate (content by LCMSMS): 0.148 mg/g powder
[1]; day 11
  Stability in Powder Concentrate (content by LCMSMS): 0.145 mg/g powder
[1]; day 12
  Stability in Powder Concentrate (content by LCMSMS): 0.152 mg/g powder
[1]; day 15
  Stability in Powder Concentrate (content by LCMSMS): 0.151 mg/g powder
[1]; day 16
  Stability in Powder Concentrate (content by LCMSMS): 0.157 mg/g powder
[1]; day 17
  Stability in Powder Concentrate (content by LCMSMS): 0.156 mg/g powder
[1]; day 18
  Stability in Powder Concentrate (content by LCMSMS): 0.149 mg/g powder
[1]; day 19
  Stability in Powder Concentrate (content by LCMSMS): 0.146 mg/g powder
[1]; day 22
  Stability in Powder Concentrate (content by LCMSMS): 0.150 mg/g powder
[1]; day 23
  Stability in Powder Concentrate (content by LCMSMS): 0.147 mg/g powder
[1]; day 24
  Stability in Powder Concentrate (content by LCMSMS): 0.150 mg/g powder
[1]; day 25
  Stability in Powder Concentrate (content by LCMSMS): 0.150 mg/g powder
[1]; day 26
  Stability in Powder Concentrate (content by LCMSMS): 0.150 mg/g powder
[1]; day 29
  Stability in Powder Concentrate (content by LCMSMS): 0.152 mg/g powder
[1]; day 30
  Stability in Powder Concentrate (content by LCMSMS): 0.151 mg/g powder
[1]; day 60
  Stability in Powder Concentrate (content by LCMSMS): 0.146 mg/g powder
[1]; day 90
  Stability in Powder Concentrate (content by LCMSMS): 0.147 mg/g powder
[1]; day 120
  Stability in Powder Concentrate (content by LCMSMS): 0.147 mg/g powder
[1]; day 150
  Stability in Powder Concentrate (content by LCMSMS): 0.153 mg/g powder
[1]; day 180
  Stability in Powder Concentrate (content by LCMSMS): 0.154 mg/g powder
[1]; day 210
  Stability in Powder Concentrate (content by LCMSMS): 0.151 mg/g powder
[1]; day 240
  Stability in Powder Concentrate (content by LCMSMS): 0.148 mg/g powder
[1]; day 270
  Stability in Powder Concentrate (content by LCMSMS): 0.148 mg/g powder
[1]; day 300
  Stability in Powder Concentrate (content by LCMSMS): 0.156 mg/g powder
[1]; day 330
  Stability in Powder Concentrate (content by LCMSMS): 0.156 mg/g powder
[1]; day 360
  Stability in Powder Concentrate (content by LCMSMS): 0.155 mg/g powder
[1]; day 390
  Stability in Powder Concentrate (content by LCMSMS): 0.153 mg/g powder
[1]; day 420
  Stability in Powder Concentrate (content by LCMSMS): 0.154 mg/g powder
[1]; day 450
  Stability in Powder Concentrate (content by LCMSMS): 0.155 mg/g powder
[1]; day 480
  Stability in Powder Concentrate (content by LCMSMS): 0.149 mg/g powder
[1]; day 510
  Stability in Powder Concentrate (content by LCMSMS): 0.154 mg/g powder
[1]; day 540
  Stability in Powder Concentrate (content by LCMSMS): 0.154 mg/g powder
[1]; day 570
  Stability in Powder Concentrate (content by LCMSMS): 0.148 mg/g powder
[2]; 8° C., 0 days
  Stability of Cannabinoids in AB Red: 1.35 µg/mL
[2]; 8° C., 1 days
  Stability of Cannabinoids in AB Red: 1.34 µg/mL
[2]; 8° C., 2 days
  Stability of Cannabinoids in AB Red: 1.34 µg/mL
[2]; 8° C., 3 days
  Stability of Cannabinoids in AB Red: 1.35 µg/mL
[2]; 8° C., 5 days
  Stability of Cannabinoids in AB Red: 1.36 µg/mL
[2]; 8° C., 8 days
  Stability of Cannabinoids in AB Red: 1.35 µg/mL
[2]; 8° C., 9 days
  Stability of Cannabinoids in AB Red: 1.36 µg/mL
[2]; 8° C., 10 days
  Stability of Cannabinoids in AB Red: 1.35 µg/mL
[2]; 8° C., 11 days
  Stability of Cannabinoids in AB Red: 1.35 µg/mL
[2]; 8° C., 12 days
  Stability of Cannabinoids in AB Red: 1.32 µg/mL
[2]; 8° C., 15 days
  Stability of Cannabinoids in AB Red: 1.33 µg/mL
[2]; 8° C., 16 days
  Stability of Cannabinoids in AB Red: 1.31 µg/mL
[2]; 8° C., 17 days
  Stability of Cannabinoids in AB Red: 1.34 µg/mL
[2]; 8° C., 18 days
  Stability of Cannabinoids in AB Red: 1.35 µg/mL
[2]; 8° C., 19 days
  Stability of Cannabinoids in AB Red: 1.32 µg/mL
[2]; 8° C., 22 days
  Stability of Cannabinoids in AB Red: 1.34 µg/mL
[2]; 8° C., 23 days
  Stability of Cannabinoids in AB Red: 1.33 µg/mL
[2]; 8° C., 24 days
  Stability of Cannabinoids in AB Red: 1.33 µg/mL
[2]; 8° C., 25 days
  Stability of Cannabinoids in AB Red: 1.34 µg/mL
[2]; 8° C., 26 days
  Stability of Cannabinoids in AB Red: 1.33 µg/mL
[2]; 8° C., 29 days
  Stability of Cannabinoids in AB Red: 1.35 µg/mL
[2]; 8° C., 30 days
  Stability of Cannabinoids in AB Red: 1.31 µg/mL
[2]; 8° C., 60 days
  Stability of Cannabinoids in AB Red: 1.32 µg/mL
[2]; 8° C., 90 days
  Stability of Cannabinoids in AB Red: 1.34 µg/mL
[2]; 8° C., 120 days
  Stability of Cannabinoids in AB Red: 1.30 µg/mL
[2]; 8° C., 150 days
  Stability of Cannabinoids in AB Red: 1.34 µg/mL
[2]; 8° C., 180 days
  Stability of Cannabinoids in AB Red: 1.30 µg/mL
[2]; 8° C., 210 days
  Stability of Cannabinoids in AB Red: 1.33 µg/mL
[2]; 8° C., 240 days
  Stability of Cannabinoids in AB Red: 1.32 µg/mL
[2]; 8° C., 270 days
  Stability of Cannabinoids in AB Red: 1.33 µg/mL
[2]; 8° C., 300 days
  Stability of Cannabinoids in AB Red: 1.30 µg/mL
[2]; 8° C., 330 days
  Stability of Cannabinoids in AB Red: 1.34 µg/mL
[2]; 8° C., 390 days
  Stability of Cannabinoids in AB Red: 1.29 µg/mL
[2]; 8° C., 420 days
  Stability of Cannabinoids in AB Red: 1.29 µg/mL
[2]; 8° C., 450 days
  Stability of Cannabinoids in AB Red: 1.31 µg/mL
[2]; 8° C., 480 days
  Stability of Cannabinoids in AB Red: 1.28 µg/mL
[2]; 8° C., 510 days
  Stability of Cannabinoids in AB Red: 1.25 µg/mL
[2]; 8° C., 540 days
  Stability of Cannabinoids in AB Red: 1.26 µg/mL
[2]; 8° C., 570 days
  Stability of Cannabinoids in AB Red: 1.24 µg/mL
[2]; 21-25° C., 0 days
  Stability of Cannabinoids in AB Red: 1.35 µg/mL
[2]; 21-25° C., 1 days
  Stability of Cannabinoids in AB Red: 1.34 µg/mL
[2]; 21-25° C., 2 days
  Stability of Cannabinoids in AB Red: 1.30 µg/mL
[2]; 21-25° C., 3 days
  Stability of Cannabinoids in AB Red: 1.32 µg/mL
[2]; 21-25° C., 5 days
  Stability of Cannabinoids in AB Red: 1.36 µg/mL
[2]; 21-25° C., 8 days
  Stability of Cannabinoids in AB Red: 1.36 µg/mL
[2]; 21-25° C., 9 days
  Stability of Cannabinoids in AB Red: 1.35 µg/mL
[2]; 21-25° C., 10 days
  Stability of Cannabinoids in AB Red: 1.33 µg/mL
[2]; 21-25° C., 11 days
  Stability of Cannabinoids in AB Red: 1.33 µg/mL
[2]; 21-25° C., 12 days
  Stability of Cannabinoids in AB Red: 1.33 µg/mL
[2]; 21-25° C., 15 days
  Stability of Cannabinoids in AB Red: 1.30 µg/mL
[2]; 21-25° C., 16 days
  Stability of Cannabinoids in AB Red: 1.36 µg/mL
[2]; 21-25° C., 17 days
  Stability of Cannabinoids in AB Red: 1.35 µg/mL
[2]; 21-25° C., 18 days
  Stability of Cannabinoids in AB Red: 1.36 µg/mL
[2]; 21-25° C., 19 days
  Stability of Cannabinoids in AB Red: 1.31 µg/mL
[2]; 21-25° C., 22 days
  Stability of Cannabinoids in AB Red: 1.34 µg/mL
[2]; 21-25° C., 23 days
  Stability of Cannabinoids in AB Red: 1.36 µg/mL
[2]; 21-25° C., 24 days
  Stability of Cannabinoids in AB Red: 1.30 µg/mL
[2]; 21-25° C., 25 days
  Stability of Cannabinoids in AB Red: 1.35 µg/mL
[2]; 21-25° C., 26 days
  Stability of Cannabinoids in AB Red: 1.32 µg/mL
[2]; 21-25° C., 29 days
  Stability of Cannabinoids in AB Red: 1.33 µg/mL
[2]; 21-25° C., 30 days
  Stability of Cannabinoids in AB Red: 1.34 µg/mL
[2]; 21-25° C., 60 days
  Stability of Cannabinoids in AB Red: 1.28 µg/mL
[2]; 21-25° C., 90 days
  Stability of Cannabinoids in AB Red: 1.34 µg/mL
[2]; 21-25° C., 120 days
  Stability of Cannabinoids in AB Red: 1.34 µg/mL
[2]; 21-25° C., 150 days
  Stability of Cannabinoids in AB Red: 1.28 µg/mL
[2]; 21-25° C., 180 days
  Stability of Cannabinoids in AB Red: 1.30 µg/mL
[2]; 21-25° C., 210 days
  Stability of Cannabinoids in AB Red: 1.33 µg/mL
[2]; 21-25° C., 240 days
  Stability of Cannabinoids in AB Red: 1.31 µg/mL
[2]; 21-25° C., 270 days
  Stability of Cannabinoids in AB Red: 1.27 µg/mL
[2]; 21-25° C., 300 days
  Stability of Cannabinoids in AB Red: 1.27 µg/mL
[2]; 21-25° C., 330 days
  Stability of Cannabinoids in AB Red: 1.28 µg/mL
[2]; 21-25° C., 390 days
  Stability of Cannabinoids in AB Red: 1.26 µg/mL
[2]; 21-25° C., 420 days
  Stability of Cannabinoids in AB Red: 1.26 µg/mL
[2]; 21-25° C., 450 days
  Stability of Cannabinoids in AB Red: 1.31 µg/mL
[2]; 21-25° C., 480 days
  Stability of Cannabinoids in AB Red: 1.29 µg/mL
[2]; 21-25° C., 510 days
  Stability of Cannabinoids in AB Red: 1.27 µg/mL
[2]; 21-25° C., 540 days
  Stability of Cannabinoids in AB Red: 1.29 µg/mL
[2]; 21-25° C., 570 days
  Stability of Cannabinoids in AB Red: 1.24 µg/mL
